# Source: patent US11446244B2 (priority 2020, dated 2022)
# “Also recorded” adds a separate entry of the source.
# Key:
# [1] = intravenous administration; cited from earlier work
# lung metastases = assay: Example 9: osteosarcoma lung metastasis patient case, Gemcitabine dpi; format: in vivo; conditions: Gemcitabine 60 dpi BID
# Description: 2 months later, after standard chemoradiotherapy is completed, they are found to have three 1-cm lung metastases. […] undergoes second line treatment but the lesions progress, so they are started on Gemcitabine 60 dpi BID and has stabilization for 12 months thereafter. Here also, Verteporfin, Ribavirin, and/or Gemcitabine dpi could all be given together coupled with inhaled or intravenous Perflubron (emulsion).
# nsp14 = nsp14 (Severe acute respiratory syndrome coronavirus, UniProt P0C6X7); conditions: cited from earlier work
# [2] = in vivo; cited from earlier work
# SARS-CoV-2 = conditions: patients with severe COVID-19; intravenous Ribavirin versus supportive care only; cited from earlier work
# SARS-CoV = conditions: BALB/c mice; cited from earlier work
# Coronavirus = assay: Example 7: coronavirus infection patient case, Ribavirin dpi; format: in vivo; conditions: dpi 60 mg twice daily for 6 days, started after 2 days of fever
# Experimental: A nonsmoker having no previous lung disease develops symptoms of fever for 2 days and is then immediately started on Ribavirin dpi 2 p or 60 mg twice daily for 6 days. […] They avoid hospitalization and thereby avoids what may have been up to an increased 15-20% risk. Verteporfin and Gemcitabine dpi could be substituted for the Ribavirin.
# [3] = Example 8: COPD and bilateral pneumonia/ARDS patient case, acetylcysteine dpi; format: in vivo; conditions: dpi every 4 hours with a bronchodilator
# Experimental: A smoker with history of moderate chronic obstructive pulmonary disease (COPD) mixed type who has been diagnosed with acute respiratory distress syndrome (ARDS) secondary to bilateral pneumonia. The patient has a very productive cough but not expectorating significant secretions and is currently on high flow system 70% FIO2 (fraction of inspired oxygen). […] The patient is initiated on acetylcysteine dpi every 4 hours along with a bronchodilator (e.g., DUONEB albuterol and ipratropium).
# [4] = Example 11: interstitial pulmonary fibrosis patient case, Verteporfin; format: in vivo; conditions: 15 mg 1 p BID
# Description: A nonsmoker farmer has a diagnosis of interstitial pulmonary fibrosis with progressive symptoms over the past 6 months and with reduction in FVC by Pulmonary Function testing. […] Here also, Verteporfin combined with inhaled Perflubron nintedanib may be given. Subsequent or concomitant PDT and/or SDT promotes the elimination of myofibroblasts/macrophages that are otherwise engaged in fibrosis.
# [5] = cited from earlier work
# Glioblastoma multiforme = assay: Example 12: glioblastoma multiforme patient case, Verteporfin nasal and oral inhalation; format: in vivo; conditions: 15 mg two puffs twice daily, six weeks
# Experimental: The patient had standard of care treatment that included surgical resection, radiation and chemotherapy, but then had recurrence and is not candidate for surgical curative intent.
# Immunohistochemistry at the 2nd operation is positive for PD-L1 and the patient is started on Verteporfin 15 mg two puffs twice daily both nasal and oral for the next six weeks. […] Here, drug delivery via intravenous route is avoided and possible direct brain delivery via nasal pathway is enabled. Here, systematic delivery of the drug by both nasal and oral inhalation is contemplated.
# [6] = lipophilic solvents such as perfluorocarbons like perflubron; cited from earlier work
# [7] = biological target: YAP1 (yes-associated protein 1) (Homo sapiens, UniProt P46937); conditions: cited from earlier work
# Sequence of YAP1 (yes-associated protein 1) (P46937 whole entry): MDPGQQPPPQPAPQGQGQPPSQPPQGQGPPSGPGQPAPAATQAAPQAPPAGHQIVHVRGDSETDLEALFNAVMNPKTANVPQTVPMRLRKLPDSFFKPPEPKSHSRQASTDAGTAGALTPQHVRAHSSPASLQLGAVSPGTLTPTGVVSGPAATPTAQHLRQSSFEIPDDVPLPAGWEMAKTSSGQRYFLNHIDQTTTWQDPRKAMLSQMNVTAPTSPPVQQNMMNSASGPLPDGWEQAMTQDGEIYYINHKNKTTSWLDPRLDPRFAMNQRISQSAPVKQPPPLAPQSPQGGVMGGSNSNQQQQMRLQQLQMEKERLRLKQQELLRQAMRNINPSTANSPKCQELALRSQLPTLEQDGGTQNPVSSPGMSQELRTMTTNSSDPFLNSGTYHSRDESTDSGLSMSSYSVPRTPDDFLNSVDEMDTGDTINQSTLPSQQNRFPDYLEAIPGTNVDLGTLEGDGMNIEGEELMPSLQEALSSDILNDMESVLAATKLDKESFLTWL
compound,measurement,setting,value
Nc1ccn([C@@H]2O[C@H](CO)[C@@H](O)C2(F)F)c(=O)n1 [Gemcitabine],warning label adverse effects,[1],can suppress bone marrow function
same,duration of stabilization of lung metastases,lung metastases,12 months
NC(=O)c1ncn([C@@H]2O[C@H](CO)[C@@H](O)[C@H]2O)n1 [Ribavirin],excision of Ribavirin by exonuclease activity of nsp14,nsp14,can efficiently excise
same,hemoglobin concentrations,[2],reduces hemoglobin concentrations
same,negative conversion time for SARS-CoV-2 test,SARS-CoV-2,not associated with improved negative conversion time; also recorded: not associated with reduced negative conversion time
same,SARS-CoV infection in treated mice,SARS-CoV,increased SARS-CoV1 infection
same,clinical outcome (symptoms),Coronavirus,symptomatic improvement
"CC(=O)N[C@@H](CS)C(=O)O [acetylcysteine, N-acetyl cysteine]",clinical outcome (need for mechanical ventilation),[3],avoid mechanical ventilation
Verteporfin,effect on lung decline,[4],stabilizing effect on lung decline
same,extent of exposure and maximal plasma concentration versus dose,[5]; dose between 6-20 mg/m^2,proportional to the dose
same,serum half-life,[5]; in vivo,5 to 6 h
same,tumor mass,Glioblastoma multiforme,overall reduction in tumor mass
same,solubility,[6],soluble in lipophilic solvents
same,YAP1 inhibition,[7],inhibits YAP1
